Assays:
[1] = tested on: TET enzyme (5hmC/5mC) in THP1 cells; type: cell-based; conditions: prodrug esters, three concentrations, 12 h
[2] = target: catalytic domain of TET2 (TET2CD) (Homo sapiens, UniProt Q6N021); assay: ELISA of 5hmC for TET2 activity, cell free; type: biochemical; conditions: for potency relative to NOG: cell free ELISA, more potent than NOG (Figure 1)
TET2 [3] = conditions: 10 mM, 0.1 mM α-KG; cited from earlier work
TET1 [4] = conditions: 10 mM, 0.1 mM α-KG; cited from earlier work
TET2 [5] = conditions: read-out: IC50 TET2; Figure 3 insert; cited from earlier work
[6] = tested on: 16 other α-KG/Fe(II) dependent enzymes; conditions: cited from earlier work
TET2CD = TET2CD (Homo sapiens, UniProt Q6N021); assay: LC-MS/MS analysis to probe TET2CD modification; conditions: TET2CD 10 μM, 2a 100 μM, 2 h, trypsin and chymotrypsin digestion
wild type (WT)-TET2 = conditions: cited from earlier work
TET1 [7] = conditions: read-out: IC50 TET1; cited from earlier work

In the case of `COC(=O)C(=O)CC(C)C(=O)OC` (centres unmarked) [21a], the “TET inhibition in THP1 cells, dot blot” value [1] is reported as “no inhibition”.

In the case of `C=C(C[C@@H](O)C(=O)O)C(=O)O` [16R, (R)-2-Hydroxy-4-methylenepentanedioic acid], the “potency relative to NOG” value [2] is reported as “approximately 2 fold”.

`O=C(O)CCC(=O)C(=O)O` [α-KG, α-ketoglutarate, reference compound] showed an EC50 ([2]; read-out: EC50, TET2CD dioxygenase activity response to α-KG, ELISA, Figure 5A) of 3.5 µM.

For `C=C(CC(Cl)C(=O)OC)C(=O)OC` (centres unmarked) [compound 9, Dimethyl 2-chloro-4-methylenepentanedioate], the “TET inhibition in THP1 cells, dot blot” value [1] was “good activity consistent with 1a”.

In the case of `O=C(O)CC[C@H](O)C(=O)O` [S-2-HG], the “inhibition of TET2 activity” value (TET2 [3]) is listed as “inhibiting most of TET1 and TET2 activity” and the “inhibition of TET1 activity” value (TET1 [4]) is listed as “inhibiting most of TET1 and TET2 activity”.

With `C=C(C[C@H](O)C(=O)O)C(=O)O` [16S, (S)-2-Hydroxy-4-methylenepentanedioic acid] the “potency relative to NOG” value [2] was “approximately 2 fold”.

For `COC(=O)CCC(=O)C(=O)OC` [DMKG, dimethyl-2-ketoglutarate, reference compound], the “TET inhibition in THP1 cells, dot blot” value [1] was “no inhibition”.

For `C=C(CC(O)C(=O)O)C(=O)O` (centres unmarked) [2a, 2-Hydroxy-4-methylenepentanedioic acid], the “potency relative to NOG” value [2] is listed as “approximately 2 fold”, the IC50 (TET2 [5]) is listed as 9.4 µM and the “inhibition of 16 other α-KG/Fe(II) dependent enzymes” value [6] is listed as “does not inhibit”. The “covalent modification of +160 Da of TET2CD peptides” value (TET2CD) was “did not observed covalent modification of +160 Da of any peptide”.

For `CC(C)CC(NC(=O)C(=O)O)C(=O)O` (centres unmarked) [NOG-5], the “effect on wild type (WT)-TET2” value (wild type (WT)-TET2) is given as “no effect”.

In the case of `Nc1nc(=O)n(-c2cccc(-c3ccccc3)c2)cc1Cl` [Bobcat 339], the IC50 (TET1 [7]) is listed as 33 µM.
